According to patent US5801222A, “Isolation and structure of the human cancer cell growth inhibitory cyclic octapeptides phakellistatin 10 and 11” (Arizona Board of Regents acting on behalf of Arizona State …, priority 1994, dated 1998):
Residues, ends and D or L forms follow the SMILES beside them.

Key:
[1] = test system: breast cancer cell lines; assay: NCI in vitro screen, breast cancer cell lines; format: cell-based, human; settings: two breast cancer cell lines
Experimental: (§1) Total Growth Inhibition ("TGI") is the drug dose needed to yield zero percent growth, i.e., just as many cells at the end of the experiment as were present in the beginning. Whether just as many cells were killed as were produced (steady state), or no growth occurred (total inhibition), cannot be distinguished.
(§2) Each drug is tested at five (5) doses: 100-10-1-0.1-0.01 μg/ml. Percent Growths are calculated for each dose. The two (or three) doses with growth values above, below, (or near to) 50% growth are used to calculate the ED50 /GI50 using a linear regression formula. The log of the dose is used during the regression computation. If no dose yields a growth value under 50%, the results are expressed as: ED50 >(highest dose). If no dose yields growth higher than 50% growth, then ED50 <(lowest dose). […]
(§3) At the start of an experiment, cells from the in vitro cell cultures are inoculated into the appropriate tubes or microtiter plates. One set of control tubes/plates is immediately counted to determine the number of cells at the start of the experiment. This is the "baseline count", or "Tzero reading". At the end of the experiment (48 hours later) a second set of control tubes/plates is analyzed to determine the "Control Growth" value. The growth (or death) of cells relative to the initial quantity of cells is used to define the "Percent of Growth". […]

[2] = test system: CNS cancer cell lines; assay: NCI in vitro screen, CNS cancer cell lines; format: cell-based, human
Experimental: as §1, §2, §3

[3] = test system: NCI's 60-cell line human tumor panel; assay: NCI 60-cell line human tumor in vitro screen; format: cell-based; settings: 60-cell line panel; 10^-5 M high test concentration, log10 dilutions; 48 hours; read-out: overall panel-averaged GI50 concentration
Excerpt: The following measures are used to express drug activity by giving the drug dose which reduces cell growth to a specified percentage of growth:
ED50 (P388) and GI50 (HTCL) are the drug doses needed to reduce the percent growth to 50%. There is no mathematical difference between ED50 and GI50, which are both calculated using the same formula. The only difference is historical usage.
as §1, with “distinguished. […]” for “distinguished.”
Percent Growths are calculated for each dose. […]
as §3

[4] = test system: five other cell lines; assay: NCI in vitro screen, five other cell lines; format: cell-based, human; settings: five other cell lines (not named)
Experimental: (§4) Lethal Concentration 50% ("LC50 ") is the drug concentration which reduces growth to -50%, i.e., removes half of the cells originally present at the beginning of the experiment.
Each drug is tested at five (5) doses: 100-10-1-0.1-0.01 μg/ml. Percent Growths are calculated for each dose. The two (or three) doses with growth values above, below, (or near to) 50% growth are used to calculate the ED50 /GI50 using a linear regression formula. The log of the dose is used during the regression computation. If no dose yields a growth value under 50%, the results are expressed as: ED50 >(highest dose). If no dose yields growth higher than 50% growth, then ED50 <(lowest dose). Similar calculations are performed for the TGI at 0% growth, and at -50% growth for the LC50.
as §3

[5] = test system: MDA-MB-435 breast cancer cell line; assay: NCI in vitro screen, MDA-MB-435; format: cell-based, human
Excerpt: as §1, §4
Each drug is tested at five (5) doses: 100-10-1-0.1-0.01 μg/ml. Percent Growths are calculated for each dose. The two (or three) doses with growth values above, below, (or near to) 50% growth are used to calculate the ED50 /GI50 using a linear regression formula. The log of the dose is used during the regression computation. […]
as §3

[6] = test system: non-small cell lung cancer cell line; assay: NCI in vitro screen, non-small cell lung cancer cell line; format: cell-based, human; settings: one non-small cell lung cancer cell line
Experimental: as §1, §2, §3

[7] = test system: ovarian cancer cell line; assay: NCI in vitro screen, ovarian cancer cell line; format: cell-based, human; settings: one ovarian cancer cell line
Experimental: as §1, §2, §3

Molecule | Total Growth Inhibition (TGI) [1] | Total Growth Inhibition (TGI) ([2]; one CNS cancer cell line) | GI50 [3] [µM] | LC50 [4] | LC50 [5] | Total Growth Inhibition (TGI) [6] | Total Growth Inhibition (TGI) [7] | Total Growth Inhibition (TGI) ([2]; two CNS cancer cell lines)
CC[C@H](C)[C@@H]1NC(=O)[C@H](Cc2ccccc2)NC(=O)[C@@H]2CCCN2C(=O)[C@H](Cc2ccccc2)NC(=O)[C@@H]2CCCN2C(=O)[C@H](CCC(N)=O)NC(=O)[C@@H]2CCCN2C(=O)[C@H](Cc2ccccc2)NC1=O [phakellistatin 11, cyclo-(Pro-Gln-Pro-Phe-Pro-Phe-Ile-Phe)] (cyclo(FIFPQPFP)) | less than 10^-7 M per milliliter | less than 10^-7 M per milliliter | 0.132 | less than 10^-5 M per milliliter | less than 10^-5 M per milliliter | less than 10^-7 M per milliliter | less than 10^-7 M per milliliter | 
cyclo-(Pro-Leu-Thr-Pro-Ile-Pro-Trp-Val) (PLTPIPWV; head-to-tail cyclic) [phakellistatin 10, cyclic octapeptide isolated from the marine sponge Phakellia sp] | less than 10^-6 M per milliliter |  | 0.79 |  | less than 10^-5 M per milliliter |  |  | less than 10^-6 M per milliliter
